Experimental data as given in patent publication US20100081690A1, “OXAZOLE DERIVATIVES AS POSITIVE ALLOSTERIC MODULATORS OF METABOTROPIC GLUTAMATE RECEPTORS” (ADDEX PHARMA SA, priority 2006, published 2010).
pEC50: −log10 of the molar value.

Target: T1, mGluR5 (Rattus norvegicus, UniProt P31424)
T1 construct: positive allosteric modulators of mGluR5 receptors in native preparations; endogenous in cells; host or cells: primary cortical astrocytes from Sprague-Dawley rat embryos (E16-19)
Assay: mGluR5 assay on rat cultured cortical astrocytes (Ca2+ mobilization, FLIPR)
Type: cell-based
Settings: in the presence of 300 nM glutamate
From the text: Under exposure to growth factors (basic fibroblast growth factor, epidermal growth factor), rat cultured astrocytes express group I-Gq coupled mGluR transcripts, namely mGluR5, but none of the splice variants of mGluR1, and as a consequence, a functional expression of mGluR5 receptors (Miller et al. (1995) J. Neurosci. 15:6103-9): The stimulation of mGluR5 receptors with selective agonist CHPG and the full blockade of the glutamate-induced phosphoinositide (PI) hydrolysis and subsequent intracellular calcium mobilization with specific antagonist as MPEP confirm the unique expression of mGluR5 receptors in this preparation. […]
After one day of incubation, cells were washed with assay buffer containing: 142 mM NaCl, 6 mM KCl, 1 mM Mg2SO4, 1 mM CaCl2, 20 mM HEPES, 1 g/L glucose, 0.125 mM sulfinpyrazone, pH 7.4. […] The plates were then transferred to a Fluorometric Imaging Plate Reader (FLIPR, Molecular Devices, Sunnyvale, Calif.) for the assessment of intracellular calcium flux. After monitoring the baseline fluorescence for 10 s, a solution containing […] of representative compound of the present invention diluted in Assay Buffer (15 μl of 4× dilutions) was added to the cell plate in the absence or in the presence of 300 nM of glutamate. […] In each experiment, fluorescence was then monitored as a function of time for 3 minutes and the data analyzed using Microsoft Excel and GraphPad Prism. […]

T1 sequence (P31424 21-1203): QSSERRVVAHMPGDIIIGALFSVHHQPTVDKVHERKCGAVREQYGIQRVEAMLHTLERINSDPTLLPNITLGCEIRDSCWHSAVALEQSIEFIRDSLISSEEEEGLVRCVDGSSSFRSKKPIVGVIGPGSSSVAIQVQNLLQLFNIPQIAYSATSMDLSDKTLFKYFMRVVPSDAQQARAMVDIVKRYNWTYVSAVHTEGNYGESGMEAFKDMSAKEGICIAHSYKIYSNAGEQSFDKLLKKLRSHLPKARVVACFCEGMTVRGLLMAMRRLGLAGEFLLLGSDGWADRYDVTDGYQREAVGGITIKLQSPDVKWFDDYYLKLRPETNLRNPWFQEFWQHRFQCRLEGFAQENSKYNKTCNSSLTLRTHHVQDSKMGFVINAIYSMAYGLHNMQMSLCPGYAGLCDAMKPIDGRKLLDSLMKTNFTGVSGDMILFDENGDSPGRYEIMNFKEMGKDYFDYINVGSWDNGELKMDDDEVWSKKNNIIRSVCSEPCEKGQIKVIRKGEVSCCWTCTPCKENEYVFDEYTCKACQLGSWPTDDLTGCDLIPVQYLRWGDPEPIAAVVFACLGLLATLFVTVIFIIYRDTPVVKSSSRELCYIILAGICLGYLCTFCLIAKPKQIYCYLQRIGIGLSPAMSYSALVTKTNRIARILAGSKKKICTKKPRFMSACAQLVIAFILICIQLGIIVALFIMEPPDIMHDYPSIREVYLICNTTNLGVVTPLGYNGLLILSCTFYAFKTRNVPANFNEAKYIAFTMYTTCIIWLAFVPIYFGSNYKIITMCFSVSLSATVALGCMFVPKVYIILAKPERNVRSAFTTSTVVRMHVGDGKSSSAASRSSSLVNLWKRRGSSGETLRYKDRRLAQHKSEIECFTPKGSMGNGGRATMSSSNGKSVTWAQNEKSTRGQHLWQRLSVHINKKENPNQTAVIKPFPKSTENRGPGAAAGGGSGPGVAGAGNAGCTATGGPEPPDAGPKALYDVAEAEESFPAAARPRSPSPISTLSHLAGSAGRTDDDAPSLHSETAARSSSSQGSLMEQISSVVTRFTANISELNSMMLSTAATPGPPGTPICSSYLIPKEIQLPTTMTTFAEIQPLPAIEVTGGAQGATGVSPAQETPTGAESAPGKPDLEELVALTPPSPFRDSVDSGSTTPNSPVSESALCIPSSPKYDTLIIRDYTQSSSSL

pEC50: > 6.00
Compound: O=C(c1ccc(F)cc1)N1CCC[C@H](c2nc(-c3cc(F)c[nH]3)co2)C1 [Example 1, (4-Fluoro-phenyl)-{(S)-3-[4-(4-fluoro-1H-pyrrol-2-yl)-oxazol-2-yl]-piperidin-1-yl}-methanone]
